Here are results for 3 compounds from patent US20030158254A1, “Engineering absorption of therapeutic compounds via colonic transporters” (XenoPort, Inc., priority 2002, published 2003).

Data set [1] can be described thus: Uptake of compounds through the rat colon (intracolonic dosing, gabapentin in blood by LC/MS/MS). It is filed as in vivo. As to conditions: dose equivalent to 25 mg gabapentin per kg, FIG. 3A. As for the experimental part: Rats were obtained commercially and were pre-cannulated in the both the ascending colon and the jugular vein. Animals were conscious at the time of the experiment. All animals were fasted overnight and until 4 hours post-dosing. Prodrugs were administered as a solution (in water or polyethylene glycol 400) directly into the colon via the cannula at a dose equivalent to 25 mg of gabapentin per kg. Blood samples (0.5 mL) were obtained from the jugular cannula at intervals over 8 hours and were quenched immediately by addition of acetonitrile/methanol to prevent further conversion of the prodrug. Blood samples were analyzed as described in the attached sample analysis summary.
1. In blank 1.5 mL eppendorf tubes, add 300 μL of a 50/50 mixture of acetonitrile/methanol and 20 μL of the p-chlorophenylalanine as internal standard.
2. Rat blood was collected at different time points and immediately 100 μL of blood was added into the eppendorf tube and vortex to mix.
3. 10 μL of the gabapentin standard solution (0.04, 0.2, 1, 5, 25, 100 μg/mL) was added to 90 μL of blank rat blood to make up a final calibration standard (0.004, 0.02, 0.1, 0.5, 2.5, 10 μg/mL). […]
API 2000 LC/MS/MS mass spectrometer equipped with Shidmadzu 10ADVp binary pumps and an autosampler (CTC Analytics AG, High Throughput Screening-PAL) were used in the analysis. […] The peaks were integrated by the Analyst 1.1 quantitation software.

Another data set relates to HEK cells. The data set is described as follows: pH assay of uptake by transporters naturally expressed in HEK cells, with and without phloretin. The format is cell-based, human. As to conditions: phloretin 0.5 mM, FIG. 1. As for the experimental part: Although HEK's are a kidney derived cell line, they express some of the same transporters as the colon and can be used as a preliminary screen to identify substrates of colon-expressed transporters.
Cells were seeded at 100,000/well in 96 black, clear bottom plate overnight and washed twice in 100 μL buffer I at room temperature.
Cells were loaded with […] 2,7-bis-(2-carboxyethyl)-5-carboxyfluoroscein acetoxymethyl ester (BCECF AM) (resuspended in 50:50 dimethylsulfoxide:Pluronic™ surfactant mixture) in buffer 1 for 15 min. at 37° C. at 50 μL/well.
The rest of the protocol was performed at room temperature.
Cells were washed twice in buffer 2 at 50 μL/well. A first reading was taken in FLEX station in the buffer 2 at two sets of fluorescence excitation/emission wavelengths, 440/535 and 490/535, with 50 μL buffer/well. […] A second reading was taken in FLEX station at above settings (T0). […] A third reading was taken in FLEX station at above settings (T1). […]
For each well, values for A, B and C were calculated using the T0 and T1 data and the following equations:
A=measured fluorescence at excitation/emission wavelengths 440/535−background
B=measured fluorescence at excitation/emission wavelengths 490/535−background
The C values for the T0 and T1 data were used to determine the percent decrease in fluorescence at T1 relative to T0. […]

The target of data set [2] is T1, hSMVT (Homo sapiens, UniProt Q9Y289).
T1 sequence (Q9Y289 1-635): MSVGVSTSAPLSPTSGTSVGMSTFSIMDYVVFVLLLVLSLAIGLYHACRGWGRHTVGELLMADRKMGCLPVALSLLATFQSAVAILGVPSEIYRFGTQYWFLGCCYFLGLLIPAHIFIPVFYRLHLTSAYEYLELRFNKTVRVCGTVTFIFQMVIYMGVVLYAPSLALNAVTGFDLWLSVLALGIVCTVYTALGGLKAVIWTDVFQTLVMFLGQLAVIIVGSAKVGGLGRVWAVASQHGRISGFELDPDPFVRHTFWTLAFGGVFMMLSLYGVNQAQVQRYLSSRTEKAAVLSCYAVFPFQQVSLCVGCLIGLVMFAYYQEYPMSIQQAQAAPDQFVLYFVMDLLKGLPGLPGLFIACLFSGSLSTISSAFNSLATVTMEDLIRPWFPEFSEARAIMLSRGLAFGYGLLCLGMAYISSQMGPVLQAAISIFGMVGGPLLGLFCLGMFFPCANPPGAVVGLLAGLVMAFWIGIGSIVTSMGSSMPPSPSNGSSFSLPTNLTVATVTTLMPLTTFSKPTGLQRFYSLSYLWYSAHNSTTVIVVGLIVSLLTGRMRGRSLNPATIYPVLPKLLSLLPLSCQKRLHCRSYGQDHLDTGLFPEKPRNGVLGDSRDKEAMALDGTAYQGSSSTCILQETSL
Kind of data set: Transport currents in SMVT-expressing Xenopus oocytes, normalized to biotin. It is filed as cell-based. As to conditions: response relative to biotin, transporter-expressing oocytes, test compound 0.5 mM. An excerpt:
The complete open reading frame of human ATBO+(SLC6A14) and SMVT (SLC5A6) were amplified from human cDNA prepared from liver or intestine mRNA. Gene-specific oligonucleotide primers were designed against Genbank sequences (AF151978 and NM-021095). Amplified PCR products were cloned into a modified version of the mammalian expression vector pcDNA3 (termed pMO) that was engineered to contain the 5′ and 3′ untranslated regions from the Xenopus beta-globin gene. All clones were completely sequenced and tested for function by transient transfection in HEK293 cells.
cRNA for oocyte expression was prepared by linearization of plasmid cDNA and in vitro transcription using T7 polymerase (Epicentre Ampliscribe kit). Xenopus oocytes were prepared and maintained as previously described (Collins et al., PNAS […]:5456-5460 (1997)) and injected with 10-30 ng RNA. Transport currents were measured 2-6 days later using two-electrode voltage-clamp (Axon Instruments). All experiments were performed using a modified oocyte Ringers solution (90 mM NaCl, 2 mM KCl, 1.8 mM CaCl2, 1 mM MgCl2, and 10 mM Na HEPES, pH 7.4; in Na^+-free solutions 90 mM choline chloride was substituted for NaCl). The membrane potential of oocytes was held at −60 mV and current traces acquired using PowerLab software (AD Instruments). Full 7-concentration dose-responses were performed for each compound. […] Half-maximal concentrations were calculated using non-linear regression curve fitting software (Prism) with the Hill co-efficient fixed to 1. To ensure that currents were specific for the over-expressed transporter, all compounds were tested against uninjected oocytes. Since both ATBO+ and SMVT require Na^+ for transport, we confirmed transport specificity by application of the compounds in a Na^+-free solution.
In vitro transport data for selected compounds on hSMVT-expressing cells

Data set [3] concerns the target T1, hSMVT. The data set is described as follows: Radiolabeled competition assay in SMVT-expressing CHO cells. The format is cell-based. An excerpt:
The complete open reading frame of human ATBO+(SLC6A14) and SMVT (SLC5A6) were amplified from human cDNA prepared from liver or intestine mRNA. […] Amplified PCR products were cloned into a modified version of the mammalian expression vector pcDNA3 (termed pMO) that was engineered to contain the 5′ and 3′ untranslated regions from the Xenopus beta-globin gene. All clones were completely sequenced and tested for function by transient transfection in HEK293 cells.
For cell uptake studies, stable CHOK1 clones were seeded into polylysine coated 96-well microtitre plates and grown for 2-3 days. Cells were incubated with experimental solutions (combinations of radiolabeled and unlabeled compounds) for 30 minutes at room temperature, washed four times, and lysed in scintillation solution. Accumulation of radiolabeled molecules was measured in a microtitre scintillation plate reader (Perkin Elmer). Inhibition constants (IC50s) were calculated using curve-fitting software (Prism).

pIC50: −log10 of the molar value.

Turning to `CC(C)(C)C(=O)OCOC(=O)NCC1(CC(=O)O)CCCCC1` [Compound I, gabapentin pivaloxymethyl carbamate], the “Colonic uptake determined from plasma concentration of gabapentin” value in data set [1] is reported as “taken up best”. For the same compound, the “Uptake by HEK cells in presence and absence of transporter inhibitor phloretin” value with HEK cells was “phloretin substantially inhibits uptake of Compound I”. Moreover, on hSMVT [2], the “% Max. (Biotin)” value was 21%.

As for `NCC1(CC(=O)O)CCCCC1` [Gabapentin, reference compound], the “Colonic uptake determined from plasma concentration of gabapentin” value in data set [1] was “not taken up significantly”. Further, on hSMVT [2], the “% Max. (Biotin)” value is listed as 0%.

For `CC(=O)OC(C)OC(=O)NCC1(CC(=O)O)CCCCC1` (stereo not drawn) [Compound IV, gabapentin acetoxyethyl carbamate], the pIC50 (in general, the negative decadic logarithm of the IC50, by convention in mol/L) at hSMVT [3] is 4.10.
